Consider 5 compounds from DBAASP.

Test systems include Pseudomonas aeruginosa 9; Candida albicans 820; Escherichia coli ML-35p; Micrococcus luteus A270; Candida albicans; Bacillus thuringiensis; Escherichia coli SBS 363; Candida albicans MDM8.
Test in all cases: ≥ marks a high value that may be exact or a test limit, other limits are often not marked, values filed in µg/mL are converted to µM
Test [1] deals with Pseudomonas aeruginosa 198.
Test [2] concerns Staphylococcus aureus C623.
The test system of test [3] is Enterococcus faecium t62764.
Test [4] relates to Pseudomonas aeruginosa PAO1 H103.
Test [5] relates to Enterococcus faecalis W61950.
In test [6] the test system is Enterococcus faecalis f43559.
The test system of test [7] is Escherichia coli ESBL 64771.
Test [8] has as its system Enterobacter cloacae 218R.
For test [9], the system named is Pseudomonas aeruginosa H1027.
Test [10] concerns Pseudomonas aeruginosa 213.
Test [11] concerns Enterococcus faecalis ATCC 29212.
The subject of test [12] is Stenotrophomonas maltophilia ATCC 13637.
In test [13] the test system is Escherichia coli ESBL 63103.
For test [14], the system named is Pseudomonas aeruginosa LES400.
Test [15] concerns Klebsiella pneumoniae ESBL 61962.
For test [16], the system named is Pseudomonas aeruginosa H1030.
The subject of test [17] is Staphylococcus aureus ATCC 25923.
Test [18] deals with Klebsiella pneumoniae ESBL 63575.
Test [19] relates to Enterococcus faecium mic80.
Test [20] concerns Listeria monocytogenes EGD.
For test [21], the system named is Staphylococcus saprophyticus.
For test [22], the system named is Klebsiella pneumoniae ATCC 13883.
Test [23] deals with Pseudomonas aeruginosa ATCC 27853.
The subject of test [24] is Escherichia coli ATCC 25922.
For test [25], the system named is Salmonella enterica subsp. arizonae ATCC 13314.
Test [26] deals with Bacillus subtilis ATCC 6633.
Test [27] deals with Bacillus subtilis CCT 2471.
Test [28] has as its system Escherichia coli CCT 1371.
The subject of test [29] is Staphylococcus aureus CCT 6538.
Test [30] relates to Alcaligenes faecalis ATCC 8750.
The subject of test [31] is Escherichia coli KCTC 1682.
The subject of test [32] is Pseudomonas aeruginosa KCTC 1637.
Test [33] has as its system Staphylococcus epidermidis KCTC 1917.
In test [34] the test system is Candida albicans KCTC 7965.
Test [35] deals with Salmonella typhimurium KCTC 1926.
The subject of test [36] is Bacillus subtilis KCTC 3068.
Test [37] has as its system Staphylococcus aureus KCTC 1621.
The test system of test [38] is Candida albicans ATCC 200955.
The test system of test [39] is Staphylococcus aureus ATCC 33591.
Test [40] relates to Enterococcus faecium ATCC 700221.

Values after ≈ are worked out from the molar mass of the structure shown. Values joined by “and” are separate entries in the source; they are usually repeats but may differ in a detail not shown here. Equal entries are not always repeated.

In general, MIC refers to the lowest concentration that inhibits growth of the organism. `CC[C@H](C)[C@H](NC(=O)[C@H](C)N)C(=O)N[C@@H](CCCN=C(N)N)C(=O)N[C@@H](CCCN=C(N)N)C(=O)N[C@@H](Cc1c[nH]c2ccccc12)C(=O)N[C@@H](CCCN=C(N)N)C(=O)N[C@H](C(=O)N[C@@H](CCCN=C(N)N)C(=O)N[C@@H](CCCCN)C(=O)O)[C@@H](C)CC` [AIRRWRIRK]: the MIC in test [1] was ≥ 137 µM; in test [2], ≥ 34.3 µM; in test [3], 8.77 µM (≈ 11 µg/mL); in test [4], ≥ 137 µM; in [5] it was ≥ 137 µM; in [6] it was ≥ 137 µM. Further, the MIC in test [7] was ≥ 68.6 µM; in test [8], ≥ 68.6 µM; against Pseudomonas aeruginosa 9, ≥ 137 µM; in test [9] it was ≥ 137 µM; in [10] it was ≥ 137 µM; in test [11], > 137 µM. Moreover, the minimum inhibitory concentration (MIC) in [12] was ≥ 68.6 µM; in test [13], ≥ 68.6 µM; in test [14], ≥ 137 µM; in test [15], ≥ 137 µM; in test [16], ≥ 137 µM; in test [17], 34.3 µM (≈ 43 µg/mL). Besides, the MIC was ≥ 137 µM in test [18] and ≥ 68.6 µM in test [19].

On to `CC[C@H](C)[C@@H]1NC(=O)[C@H](CCCN=C(N)N)NC(=O)[C@@H]2CSSC[C@@H]3NC(=O)[C@H](C(C)C)NC(=O)CNC(=O)[C@H](Cc4ccccc4)NC(=O)[C@H](Cc4ccc(O)cc4)NC(=O)[C@H](C(C)C)NC(=O)[C@H](CCC(=O)O)NC(=O)[C@H](CC(C)C)NC(=O)CNC(=O)[C@H](CC(C)C)NC(=O)[C@H](CSSC[C@H](NC(=O)[C@H](CCCN=C(N)N)NC(=O)[C@H](CCCN=C(N)N)NC(=O)[C@H](C)NC(=O)[C@H](CC(C)C)NC(=O)[C@H](CCCN=C(N)N)NC(=O)CNC(=O)[C@H](Cc4cnc[nH]4)NC(=O)[C@H](CC(C)C)NC(=O)[C@H](Cc4ccccc4)NC3=O)C(=O)N[C@H](C(=O)N[C@@H](CCCN=C(N)N)C(=O)O)CSSC[C@H](NC(=O)[C@@H](NC(=O)[C@H](CCCN=C(N)N)NC(=O)[C@@H](N)CCCN=C(N)N)[C@@H](C)CC)C(=O)N[C@@H](CCCN=C(N)N)C(=O)N2)NC(=O)[C@H](CCCN=C(N)N)NC(=O)CNC1=O` [RRICRCRIGRCLGLEVYFGVCFLHGRLARRCCR], for which the MIC against Candida albicans 820 was 2.3 µM and 4.5 µM; against Escherichia coli ML-35p it was 1.6 µM and 3.5 µM; in test [20], 1.3 µM and 1.8 µM.

Regarding `CC[C@H](C)[C@H](NC(=O)[C@H](CC(C)C)NC(=O)[C@H](CO)NC(=O)[C@H](CC(C)C)NC(=O)[C@H](CC(C)C)NC(=O)[C@@H](N)CO)C(=O)N[C@@H](CCCN=C(N)N)C(=O)N[C@@H](CCCCN)C(=O)N[C@@H](CC(C)C)C(=O)N[C@H](C(=O)N[C@H](C(N)=O)[C@@H](C)O)[C@@H](C)CC` [SLLSLIRKLIT], the MIC against Micrococcus luteus A270 was 0.8 µM (≈ 1 µg/mL); in the test with Candida albicans it was 20 µM (≈ 25.1 µg/mL); in [21] it was 20 µM (≈ 25.1 µg/mL); against Bacillus thuringiensis it was 20 µM (≈ 25.1 µg/mL); in test [22] it was ≥ 40 µM; in test [23] it was 1.6 µM (≈ 2.01 µg/mL). Moreover, the MIC was 40 µM (≈ 50.2 µg/mL) in test [24]; 25 µM (≈ 31.4 µg/mL) in [25]; 6.2 µM (≈ 7.78 µg/mL) in test [26]; 1.6 µM (≈ 2.01 µg/mL) in the test with Escherichia coli SBS 363; 8 µM (≈ 10 µg/mL) in test [27]; 20 µM (≈ 25.1 µg/mL) in [28]. Besides, the MIC with Candida albicans MDM8 is 0.8 µM (≈ 1 µg/mL); in test [29] it was 4 µM (≈ 5.02 µg/mL); in test [30] it was ≥ 40 µM.

For the compound `CC(C)C[C@H](NC(=O)[C@H](Cc1ccccc1)NC(=O)CNC(=O)[C@H](Cc1c[nH]c2ccccc12)NC(=O)[C@H](Cc1c[nH]c2ccccc12)NC(=O)[C@H](Cc1c[nH]c2ccccc12)NC(=O)CNC(=O)[C@H](Cc1ccccc1)NC(=O)[C@H](CCCN=C(N)N)NC(=O)[C@H](CCCN=C(N)N)NC(=O)[C@@H](N)C(C)C)C(=O)N[C@@H](CCCN=C(N)N)C(=O)N[C@@H](CCCN=C(N)N)C(=O)O` [VRRFGWWWGFLRR], the MIC in test [31] was 17.6 µM (≈ 32 µg/mL); in test [32], ≥ 35.1 µM; in test [33], 4.39 µM (≈ 8 µg/mL); in test [34], 17.6 µM (≈ 32 µg/mL); in test [35], 17.6 µM (≈ 32 µg/mL); in test [36], 8.78 µM (≈ 16 µg/mL). In test [37], this compound returned an MIC of 8.78 µM (≈ 16 µg/mL).

For `CC[C@H](C)[C@H](NC(=O)[C@H](CCCN=C(N)N)NC(=O)[C@H](CCCCN)NC(=O)[C@H](CC(C)C)NC(=O)[C@H](CC(C)C)NC(=O)CN)C(=O)N[C@@H](CCCCN)C(=O)N[C@@H](CCCCN)C(=O)N[C@@H](CC(C)C)C(=O)N[C@@H](CC(C)C)C(N)=O` [GLLKRIKKLL], the MIC is ≥ 85.3 µM in [38]; 28.4 µM (≈ 33.5 µg/mL) in test [23]; ≥ 256 µM in test [39]; ≥ 66.3 µM in test [40]; 4.23 µM (≈ 5 µg/mL) in test [17].
